According to ChEMBL document CHEMBL1909046, “DrugMatrix in vitro pharmacology data”:

What was measured:
[1] = DRUGMATRIX: ATPase, Na+/K+ enzyme inhibition (substrate: ATP); format: tissue-based, Sus scrofa, Heart; conditions: Not Active = under 50% inhibition at 10 µM
[2] = target: Delta-type opioid receptor (Homo sapiens, UniProt P41143); format: cell membranes, HEK293, Membrane; conditions: hek293; also: in other assays of this panel Not Active means under 50% inhibition at 10 µM
[3] = target: Vascular endothelial growth factor receptor 1 (Homo sapiens, UniProt P17948); format: cell-based; conditions: huvec; also: in other assays of this panel Not Active means under 50% inhibition at 10 µM
Vascular endothelial growth factor receptor 1, sequence (P17948 whole entry): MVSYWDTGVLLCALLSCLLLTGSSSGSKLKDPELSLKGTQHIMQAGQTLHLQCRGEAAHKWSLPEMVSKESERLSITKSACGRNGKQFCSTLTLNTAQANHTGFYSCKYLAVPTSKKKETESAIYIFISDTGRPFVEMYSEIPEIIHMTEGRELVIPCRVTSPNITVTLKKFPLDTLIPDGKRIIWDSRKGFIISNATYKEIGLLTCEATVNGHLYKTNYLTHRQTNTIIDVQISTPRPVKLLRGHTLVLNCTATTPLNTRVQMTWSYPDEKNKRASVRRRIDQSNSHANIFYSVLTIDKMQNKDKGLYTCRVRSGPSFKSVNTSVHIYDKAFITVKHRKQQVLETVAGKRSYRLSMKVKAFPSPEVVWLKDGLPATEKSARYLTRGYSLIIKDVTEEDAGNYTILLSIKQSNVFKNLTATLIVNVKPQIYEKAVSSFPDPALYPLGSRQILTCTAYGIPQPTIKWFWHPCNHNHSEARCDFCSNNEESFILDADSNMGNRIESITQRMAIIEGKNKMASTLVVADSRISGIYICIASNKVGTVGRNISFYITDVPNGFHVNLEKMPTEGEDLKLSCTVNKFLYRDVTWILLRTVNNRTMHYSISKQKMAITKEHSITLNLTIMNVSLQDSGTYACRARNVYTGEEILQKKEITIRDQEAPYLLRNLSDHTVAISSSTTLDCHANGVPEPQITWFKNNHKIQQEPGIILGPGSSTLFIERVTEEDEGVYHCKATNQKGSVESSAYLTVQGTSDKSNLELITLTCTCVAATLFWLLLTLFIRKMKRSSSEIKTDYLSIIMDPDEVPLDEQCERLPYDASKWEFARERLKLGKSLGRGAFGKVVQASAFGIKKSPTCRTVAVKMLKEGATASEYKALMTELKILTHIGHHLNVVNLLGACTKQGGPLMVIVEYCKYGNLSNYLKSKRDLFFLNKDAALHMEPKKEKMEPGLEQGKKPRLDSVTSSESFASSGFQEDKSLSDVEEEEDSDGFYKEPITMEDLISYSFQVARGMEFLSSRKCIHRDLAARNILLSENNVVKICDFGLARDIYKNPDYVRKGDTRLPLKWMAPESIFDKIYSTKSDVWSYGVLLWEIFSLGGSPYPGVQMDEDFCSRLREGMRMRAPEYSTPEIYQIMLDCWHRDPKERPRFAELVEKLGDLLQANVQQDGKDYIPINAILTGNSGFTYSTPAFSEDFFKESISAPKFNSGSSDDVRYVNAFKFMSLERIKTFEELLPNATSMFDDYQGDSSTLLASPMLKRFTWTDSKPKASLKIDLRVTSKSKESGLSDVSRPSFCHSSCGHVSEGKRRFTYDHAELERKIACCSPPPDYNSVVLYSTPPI

[4] = DRUGMATRIX: Phosphodiesterase PDE3 enzyme inhibition (substrate: [3H]cAMP + cAMP); format: tissue-based, Homo sapiens; conditions: platelet; Not Active = under 50% inhibition at 10 µM
[5] = DRUGMATRIX: Sodium/nucleoside co-transporter radioligand binding (ligand: nitrobenzylthioinosine); format: cell membranes, Cavia porcellus, Dunkin-Hartley, Cerebral cortex, Membrane; conditions: Not Active = under 50% inhibition at 10 µM
[6] = target: T1, Amine oxidase [flavin-containing] A (Homo sapiens, UniProt P21397); assay: DRUGMATRIX: Monoamine Oxidase MAO-A enzyme inhibition (substrate: Kynuramine); design: species or system BTI-TN-5B1-4; conditions: bti-tn-5b1-4; Not Active = under 50% inhibition at 10 µM
T1 sequence (P21397 whole entry): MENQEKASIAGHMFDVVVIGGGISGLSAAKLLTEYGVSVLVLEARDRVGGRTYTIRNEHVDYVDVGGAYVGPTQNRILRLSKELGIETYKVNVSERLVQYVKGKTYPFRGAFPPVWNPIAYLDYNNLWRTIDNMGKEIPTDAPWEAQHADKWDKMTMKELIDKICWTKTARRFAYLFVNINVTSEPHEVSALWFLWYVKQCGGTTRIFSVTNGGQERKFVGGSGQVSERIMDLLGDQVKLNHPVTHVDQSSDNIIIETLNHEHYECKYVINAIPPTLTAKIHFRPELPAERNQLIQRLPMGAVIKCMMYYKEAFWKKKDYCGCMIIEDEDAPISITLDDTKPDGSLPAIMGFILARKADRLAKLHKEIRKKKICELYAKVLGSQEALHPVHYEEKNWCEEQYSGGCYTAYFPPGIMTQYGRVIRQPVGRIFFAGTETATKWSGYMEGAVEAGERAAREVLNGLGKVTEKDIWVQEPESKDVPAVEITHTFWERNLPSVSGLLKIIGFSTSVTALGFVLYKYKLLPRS

[7] = target: T2, Muscarinic acetylcholine receptor M2 (Homo sapiens, UniProt P08172); format: cell membranes, CHO-K1, Membrane; also: in other assays of this panel Not Active means under 50% inhibition at 10 µM
T2 sequence (P08172 whole entry): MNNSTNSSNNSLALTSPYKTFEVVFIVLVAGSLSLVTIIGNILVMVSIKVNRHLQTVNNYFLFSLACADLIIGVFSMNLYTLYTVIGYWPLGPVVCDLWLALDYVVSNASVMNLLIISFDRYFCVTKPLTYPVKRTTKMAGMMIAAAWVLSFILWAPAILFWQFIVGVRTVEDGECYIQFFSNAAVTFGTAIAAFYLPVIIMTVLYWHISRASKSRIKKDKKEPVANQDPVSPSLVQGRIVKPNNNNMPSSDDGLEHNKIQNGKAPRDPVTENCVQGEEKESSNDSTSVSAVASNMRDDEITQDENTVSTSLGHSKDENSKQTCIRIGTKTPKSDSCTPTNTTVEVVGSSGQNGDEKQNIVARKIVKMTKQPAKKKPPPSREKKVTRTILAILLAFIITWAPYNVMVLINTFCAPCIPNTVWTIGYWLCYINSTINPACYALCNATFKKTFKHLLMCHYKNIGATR

[8] = target: Beta-3 adrenergic receptor (Homo sapiens, UniProt P13945); assay: DRUGMATRIX: Adrenergic beta3 radioligand binding (ligand: [125I] Cyanopindolol); format: cell membranes, Membrane; conditions: hek293; Not Active = under 50% inhibition at 10 µM
Beta-3 adrenergic receptor, sequence (P13945 whole entry): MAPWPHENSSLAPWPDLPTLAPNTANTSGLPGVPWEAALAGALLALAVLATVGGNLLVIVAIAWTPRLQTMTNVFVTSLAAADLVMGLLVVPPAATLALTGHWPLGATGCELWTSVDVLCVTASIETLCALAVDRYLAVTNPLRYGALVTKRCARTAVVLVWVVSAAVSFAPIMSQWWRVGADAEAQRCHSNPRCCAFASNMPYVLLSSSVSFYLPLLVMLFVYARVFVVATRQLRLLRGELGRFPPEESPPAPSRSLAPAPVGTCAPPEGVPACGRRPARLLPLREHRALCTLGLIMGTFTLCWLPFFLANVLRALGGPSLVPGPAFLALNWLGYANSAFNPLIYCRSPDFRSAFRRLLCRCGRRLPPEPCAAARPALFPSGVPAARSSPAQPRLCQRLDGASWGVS

Delta-type opioid receptor, sequence (P41143 whole entry): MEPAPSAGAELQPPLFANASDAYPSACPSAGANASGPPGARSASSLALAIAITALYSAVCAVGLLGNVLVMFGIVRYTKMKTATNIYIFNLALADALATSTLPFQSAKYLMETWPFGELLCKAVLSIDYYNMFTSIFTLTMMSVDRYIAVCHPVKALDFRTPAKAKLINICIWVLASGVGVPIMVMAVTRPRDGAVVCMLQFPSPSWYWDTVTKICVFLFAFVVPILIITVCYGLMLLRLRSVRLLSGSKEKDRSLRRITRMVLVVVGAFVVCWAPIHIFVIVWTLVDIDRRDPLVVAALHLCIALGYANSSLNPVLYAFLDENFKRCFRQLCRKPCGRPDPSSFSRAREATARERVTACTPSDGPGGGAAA

Row | Compound | IC50 [1] | Ki [1] | IC50 [2] | IC50 [3] | IC50 [4] | Ki [4] | IC50 [5] | Ki [5] | IC50 [6] | IC50 ([7]; cho-k1) | IC50 [8] | IC50 ([7]; read-out: IC50) [nM] | Ki ([7]; read-out: Ki) [nM]
1 | C[C@]12CC[C@@H]3c4ccc(OC(=O)c5ccccc5)cc4CC[C@H]3[C@@H]1CC[C@@H]2O [ESTRADIOL BENZOATE] | Not Active | Not Active | Not Active | Not Active | Not Active | Not Active | Not Active | Not Active | Not Active | Not Active | Not Active | – | –
2 | C[C@]12CC[C@@H]3c4ccc(O)cc4CC[C@H]3[C@@H]1CC[C@@H]2O [ESTRADIOL] | Not Active | Not Active | Not Active | Not Active | Not Active | Not Active | Not Active | Not Active | Not Active | Not Active | Not Active | – | –
3 | CC[C@@H](CO)NCCN[C@@H](CC)CO [ETHAMBUTOL] | Not Active | Not Active | Not Active | Not Active | Not Active | Not Active | Not Active | Not Active | Not Active | Not Active | Not Active | – | –
4 | CC1(C)O[C@@H]2C[C@H]3[C@@H]4C[C@H](F)C5=CC(=O)C=C[C@]5(C)[C@H]4[C@@H](O)C[C@]3(C)[C@]2(C(=O)CO)O1 [FLUNISOLIDE] | Not Active | Not Active | Not Active | Not Active | Not Active | Not Active | Not Active | Not Active | Not Active | Not Active | Not Active | – | –
5 | CC1(C)O[C@@H]2C[C@H]3[C@@H]4C[C@H](F)C5=CC(=O)C=C[C@]5(C)[C@@]4(F)[C@@H](O)C[C@]3(C)[C@]2(C(=O)CO)O1 [FLUOCINOLONE ACETONIDE] | Not Active | Not Active | Not Active | Not Active | Not Active | Not Active | Not Active | Not Active | Not Active | Not Active | Not Active | – | –
6 | CC1(C)O[C@@H]2C[C@H]3[C@@H]4C[C@H](F)C5=CC(=O)CC[C@]5(C)[C@H]4[C@@H](O)C[C@]3(C)[C@]2(C(=O)CO)O1 [FLURANDRENOLIDE] | Not Active | Not Active | Not Active | Not Active | Not Active | Not Active | Not Active | Not Active | Not Active | Not Active | Not Active | – | –
7 | CN(C)c1ccc(C(=C2C=CC(=[N+](C)C)C=C2)c2ccc(N(C)C)cc2)cc1.[Cl-] [GENTIAN VIOLET] | Not Active | Not Active | Not Active | Not Active | Not Active | Not Active | Not Active | Not Active | Not Active | – | Not Active | 1430 | 508
8 | Cc1ccc(S(=O)(=O)NC(=O)NN2CC3CCCC3C2)cc1 (stereo unspecified) [GLICLAZIDE] | Not Active | Not Active | Not Active | Not Active | Not Active | Not Active | Not Active | Not Active | Not Active | Not Active | Not Active | – | –
9 | NC(=O)NO [HYDROXYUREA] | Not Active | Not Active | Not Active | Not Active | Not Active | Not Active | Not Active | Not Active | Not Active | Not Active | Not Active | – | –
10 | CC(C)Cc1ccc(C(C)C(=O)O)cc1 (stereo unspecified) [IBUPROFEN] | Not Active | Not Active | Not Active | Not Active | Not Active | Not Active | Not Active | Not Active | Not Active | Not Active | Not Active | – | –
11 | COc1ccc2c(c1)c(CC(=O)O)c(C)n2C(=O)c1ccc(Cl)cc1 [INDOMETHACIN] | Not Active | Not Active | Not Active | Not Active | Not Active | Not Active | Not Active | Not Active | Not Active | Not Active | Not Active | – | –
12 | CCc1c2c(nc3ccc(OC(=O)N4CCC(N5CCCCC5)CC4)cc13)-c1cc3c(c(=O)n1C2)COC(=O)[C@]3(O)CC [IRINOTECAN] | Not Active | Not Active | Not Active | Not Active | Not Active | Not Active | Not Active | Not Active | Not Active | Not Active | Not Active | – | –
13 | CC(C(=O)O)c1cccc(C(=O)c2ccccc2)c1 (stereo unspecified) [KETOPROFEN] | Not Active | Not Active | Not Active | Not Active | Not Active | Not Active | Not Active | Not Active | Not Active | Not Active | Not Active | – | –
14 | Nc1ccn([C@@H]2CS[C@H](CO)O2)c(=O)n1 [LAMIVUDINE] | Not Active | Not Active | Not Active | Not Active | Not Active | Not Active | Not Active | Not Active | Not Active | Not Active | Not Active | – | –
15 | O=S(=O)([O-])CCS.[Na+] [MESNA] | Not Active | Not Active | Not Active | Not Active | Not Active | Not Active | Not Active | Not Active | Not Active | Not Active | Not Active | – | –
16 | C#C[C@]1(O)CC[C@H]2[C@@H]3CCc4cc(OC)ccc4[C@H]3CC[C@@]21C [MESTRANOL] | Not Active | Not Active | Not Active | Not Active | Not Active | Not Active | Not Active | Not Active | Not Active | Not Active | Not Active | – | –
17 | CC(=O)Nc1cccc(O)c1 [METACETAMOL] | Not Active | Not Active | Not Active | Not Active | Not Active | Not Active | Not Active | Not Active | Not Active | Not Active | Not Active | – | –
18 | Cc1ncc([N+](=O)[O-])n1CCO [METRONIDAZOLE] | Not Active | Not Active | Not Active | Not Active | Not Active | Not Active | Not Active | Not Active | Not Active | Not Active | Not Active | – | –
19 | CC(C)(C(=O)c1cccnc1)c1cccnc1 [METYRAPONE] | Not Active | Not Active | Not Active | Not Active | Not Active | Not Active | Not Active | Not Active | Not Active | Not Active | Not Active | – | –
20 | Oc1ccc(OCc2ccccc2)cc1 [MONOBENZONE] | Not Active | Not Active | Not Active | Not Active | Not Active | Not Active | Not Active | Not Active | Not Active | Not Active | Not Active | – | –
